{
  "source": "ChEMBL document CHEMBL4334471",
  "about": "“Discovery of 1,8-disubstituted-[1,2,3]triazolo[4,5-c]quinoline derivatives as a new class of Hippo signaling pathway inhibitors” (Bioorg Med Chem Lett, 2019)",
  "key": {"A549": {"system": "A549", "experiment": "Upregulation of CYR61 in human A549 cells incubated for 24 hrs by qRT-PCR analysis", "type": "functional, cell-based"}, "[1]": {"target": "Mitogen-activated protein kinase kinase kinase 5 (Homo sapiens) (UniProt Q99683)", "experiment": "Inhibition of recombinant human ASK1 (649 to 946 residues) assessed as residual activity at 10 uM using myelin basic protein as substrate incubated for 40 mins in presence of [gamma-33ATP] by scintillation counting based radiometry assay relative to control"}, "[2]": {"target": "Serine/threonine-protein kinase BRSK1 (Homo sapiens) (UniProt Q8TDC3)", "experiment": "Inhibition of recombinant human BRSK1 ( 2 to end residues) assessed as residual activity at 10 uM using KKKVSRSGLYRSPSMPENLNRPR substrate incubated for 40 mins in presence of [gamma-33ATP] by scintillation counting based radiometry assay relative to control"}, "[3]": {"target": "Calcium/calmodulin-dependent protein kinase type II subunit delta (Homo sapiens) (UniProt Q13557)", "experiment": "Inhibition of recombinant full length human CaMK2delta assessed as residual activity at 10 uM using […] incubated for 40 mins in presence of [gamma-33ATP] by scintillation counting based radiometry assay relative to control"}, "[4]": {"system": "Serine/threonine-protein kinase Chk2 (Homo sapiens), O96017 [R145W]", "experiment": "Inhibition of recombinant human CHK2 R145W mutant (5 to end residues) assessed as residual activity at 10 uM using KKKVSRSGLYRSPSMPENLNRPR as substrate incubated for 40 mins in presence of [gamma-33ATP] by scintillation counting based radiometry assay relative to control"}, "[5]": {"target": "Serine/threonine-protein kinase 35 (Homo sapiens) (UniProt Q8TDR2)", "experiment": "Inhibition of recombinant full length human CLIK1 assessed as residual activity at 10 uM using RSRSRSRSRSRS as substrate incubated 40 mins in presence of [gamma-33ATP] by scintillation counting based radiometry assay relative to control"}, "Homo sapiens [6]": {"species": "Homo sapiens", "experiment": "Inhibition of recombinant human DDR1 V833L mutant (492 to end residues) assessed as residual activity at 10 uM using KKKSPGEYVNIEF as substrate at 40 mins in presence of [gamma-33ATP] by scintillation counting based radiometry assay relative to control"}, "[7]": {"target": "Myotonin-protein kinase (Homo sapiens) (UniProt Q09013)", "sequence (Q09013 whole entry, the tested form may be a part)": "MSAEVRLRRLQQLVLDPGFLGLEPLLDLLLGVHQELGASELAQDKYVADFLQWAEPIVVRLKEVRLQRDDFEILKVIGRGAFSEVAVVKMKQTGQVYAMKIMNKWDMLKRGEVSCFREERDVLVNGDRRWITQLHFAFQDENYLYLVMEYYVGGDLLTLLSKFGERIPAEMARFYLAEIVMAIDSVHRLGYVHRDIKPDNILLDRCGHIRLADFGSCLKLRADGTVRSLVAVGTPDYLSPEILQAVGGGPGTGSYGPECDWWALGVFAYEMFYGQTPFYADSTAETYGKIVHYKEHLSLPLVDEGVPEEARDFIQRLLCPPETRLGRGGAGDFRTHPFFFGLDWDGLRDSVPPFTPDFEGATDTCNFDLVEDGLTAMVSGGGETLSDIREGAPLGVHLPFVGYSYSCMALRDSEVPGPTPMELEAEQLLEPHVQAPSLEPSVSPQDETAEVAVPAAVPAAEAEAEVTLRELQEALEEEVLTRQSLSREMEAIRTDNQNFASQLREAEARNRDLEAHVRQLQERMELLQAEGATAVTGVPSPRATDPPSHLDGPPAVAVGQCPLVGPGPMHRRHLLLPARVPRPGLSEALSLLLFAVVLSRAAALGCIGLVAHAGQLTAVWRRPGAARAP", "experiment": "Inhibition of recombinant human DMPK (1 to 549 residues) assessed as residual activity at 10 uM using KKSRGDYMTMQIG as substrate at 40 mins in presence of [gamma-33ATP] by scintillation counting based radiometry assay relative to control"}, "[8]": {"target": "Focal adhesion kinase 1 (Homo sapiens) (UniProt Q05397)", "sequence (Q05397 2-1052 limits assumed)": "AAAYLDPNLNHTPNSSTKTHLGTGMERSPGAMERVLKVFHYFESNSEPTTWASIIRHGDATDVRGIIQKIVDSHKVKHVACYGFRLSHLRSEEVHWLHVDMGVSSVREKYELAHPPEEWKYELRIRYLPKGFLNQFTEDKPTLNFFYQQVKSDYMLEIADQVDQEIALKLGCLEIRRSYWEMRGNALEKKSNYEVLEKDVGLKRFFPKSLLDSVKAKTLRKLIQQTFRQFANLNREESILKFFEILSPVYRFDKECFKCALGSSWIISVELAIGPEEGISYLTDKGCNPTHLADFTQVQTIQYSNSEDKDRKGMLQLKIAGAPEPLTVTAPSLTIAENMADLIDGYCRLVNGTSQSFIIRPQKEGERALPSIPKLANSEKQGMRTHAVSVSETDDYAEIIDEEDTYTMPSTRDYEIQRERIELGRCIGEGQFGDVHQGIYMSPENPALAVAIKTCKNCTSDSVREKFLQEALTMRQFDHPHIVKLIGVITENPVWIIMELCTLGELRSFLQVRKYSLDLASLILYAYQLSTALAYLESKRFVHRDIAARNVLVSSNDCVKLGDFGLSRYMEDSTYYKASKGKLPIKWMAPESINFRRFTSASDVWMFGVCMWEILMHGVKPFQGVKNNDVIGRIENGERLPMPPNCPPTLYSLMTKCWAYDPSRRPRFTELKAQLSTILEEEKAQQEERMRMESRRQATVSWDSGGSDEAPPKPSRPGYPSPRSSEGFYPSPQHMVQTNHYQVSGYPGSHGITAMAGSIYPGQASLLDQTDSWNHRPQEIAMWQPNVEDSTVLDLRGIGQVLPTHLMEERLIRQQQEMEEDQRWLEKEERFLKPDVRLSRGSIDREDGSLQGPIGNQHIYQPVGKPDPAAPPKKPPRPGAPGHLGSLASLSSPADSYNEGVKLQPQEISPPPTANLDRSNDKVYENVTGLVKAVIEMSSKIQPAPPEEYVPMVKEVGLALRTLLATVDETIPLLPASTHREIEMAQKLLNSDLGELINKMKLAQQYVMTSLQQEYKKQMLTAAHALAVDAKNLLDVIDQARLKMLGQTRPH", "experiment": "Inhibition of recombinant human FAK (411 to 686 residues) assessed as residual activity at 10 uM using EEEEYEEEEEEYYIIEEEEEEYEEEEEEYYEEEEEEKKKK as substrate at 40 mins in presence of [gamma-33ATP] by scintillation counting based radiometry assay relative to control"}, "[9]": {"target": "Macrophage colony-stimulating factor 1 receptor (Homo sapiens) (UniProt P07333)", "sequence (P07333 whole entry)": "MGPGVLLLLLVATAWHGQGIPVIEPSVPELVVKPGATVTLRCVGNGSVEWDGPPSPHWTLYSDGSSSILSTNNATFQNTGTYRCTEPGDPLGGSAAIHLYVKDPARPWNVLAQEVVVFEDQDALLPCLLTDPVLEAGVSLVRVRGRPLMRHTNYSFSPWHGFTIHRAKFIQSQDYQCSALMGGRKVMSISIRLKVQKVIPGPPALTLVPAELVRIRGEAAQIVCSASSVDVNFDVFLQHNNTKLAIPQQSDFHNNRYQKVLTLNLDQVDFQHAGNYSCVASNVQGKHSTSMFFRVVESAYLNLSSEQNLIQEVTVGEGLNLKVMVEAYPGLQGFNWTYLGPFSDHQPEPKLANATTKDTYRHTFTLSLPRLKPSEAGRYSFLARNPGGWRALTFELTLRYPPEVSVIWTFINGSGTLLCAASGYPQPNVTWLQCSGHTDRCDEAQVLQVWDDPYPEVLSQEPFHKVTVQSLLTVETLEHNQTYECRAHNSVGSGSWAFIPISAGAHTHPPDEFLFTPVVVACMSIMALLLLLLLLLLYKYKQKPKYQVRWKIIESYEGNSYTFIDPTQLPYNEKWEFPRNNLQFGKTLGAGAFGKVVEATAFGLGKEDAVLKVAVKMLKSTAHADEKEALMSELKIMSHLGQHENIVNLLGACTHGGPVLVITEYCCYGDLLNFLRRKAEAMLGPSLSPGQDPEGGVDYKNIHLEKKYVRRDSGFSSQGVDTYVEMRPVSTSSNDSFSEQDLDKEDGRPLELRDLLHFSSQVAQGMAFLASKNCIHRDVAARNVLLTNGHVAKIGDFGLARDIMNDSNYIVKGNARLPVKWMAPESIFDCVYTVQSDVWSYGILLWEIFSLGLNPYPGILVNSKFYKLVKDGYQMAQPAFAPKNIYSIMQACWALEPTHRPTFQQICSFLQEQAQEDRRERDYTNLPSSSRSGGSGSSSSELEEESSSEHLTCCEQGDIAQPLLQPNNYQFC", "experiment": "Inhibition of recombinant human FMS (538 to end residues) assessed as residual activity at 10 uM using KKKSPGEYVNIEF as substrate at 40 mins in presence of [gamma-33ATP] by scintillation counting based radiometry assay relative to control"}, "[10]": {"system": "eIF-2-alpha kinase GCN2 (Homo sapiens), Q9P2K8 [E556G]", "experiment": "Inhibition of recombinant full length human GCN2 E556G mutant assessed as residual activity at 10 uM using RSRSRSRSRSRSR as substrate at 40 mins in presence of [gamma-33ATP] by scintillation counting based radiometry assay relative to control"}, "[11]": {"target": "Dual specificity mitogen-activated protein kinase kinase 1 (Homo sapiens) (UniProt Q02750)", "experiment": "Inhibition of recombinant human MEK1 assessed as residual activity at 10 uM using inactive MAPK2 as substrate incubated for 40 mins in presence of [gamma-33ATP by scintillation counting based radiometry assay relative to control"}, "[12]": {"target": "Serine/threonine-protein kinase Nek3 (Homo sapiens) (UniProt P51956)", "experiment": "Inhibition of recombinant full-length human NEK3 assessed as residual activity at 10 uM using myelin basic protein as substrate measured after 40 mins in presence of [gamma33P]ATP by scintillation counting based radiometry assay relative to control"}, "[13]": {"target": "Serine/threonine-protein kinase D2 (Homo sapiens) (UniProt Q9BZL6)", "experiment": "Inhibition of recombinant full-length human PKD2 assessed as residual activity at 10 uM using KKLNRTLSVA as substrate incubated for 40 mins in presence of [gamma33P]ATP by scintillation counting based radiometry assay relative to control"}, "[14]": {"target": "Receptor-interacting serine/threonine-protein kinase 2 (Homo sapiens) (UniProt O43353)", "sequence (O43353 whole entry, the tested form may be a part)": "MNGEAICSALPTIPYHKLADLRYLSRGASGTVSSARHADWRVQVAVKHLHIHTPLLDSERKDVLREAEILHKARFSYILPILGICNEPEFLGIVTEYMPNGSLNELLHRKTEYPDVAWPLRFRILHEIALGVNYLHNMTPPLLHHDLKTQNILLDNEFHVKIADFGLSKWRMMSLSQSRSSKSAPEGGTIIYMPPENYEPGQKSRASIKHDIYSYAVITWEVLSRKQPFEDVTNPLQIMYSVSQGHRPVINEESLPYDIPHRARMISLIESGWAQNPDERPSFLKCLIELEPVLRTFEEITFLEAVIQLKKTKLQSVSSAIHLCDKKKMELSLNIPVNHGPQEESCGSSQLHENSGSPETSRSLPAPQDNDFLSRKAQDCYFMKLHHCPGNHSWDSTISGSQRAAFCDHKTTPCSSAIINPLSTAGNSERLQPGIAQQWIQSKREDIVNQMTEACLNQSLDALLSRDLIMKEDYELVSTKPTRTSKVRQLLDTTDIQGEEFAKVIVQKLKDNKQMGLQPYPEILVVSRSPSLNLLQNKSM", "experiment": "Inhibition of recombinant human RIPK2 (1 to 299 residues) assessed as residual activity at 10 uM using myelin basic protein as substrate incubated for 120 mins in presence of [gamma33P]ATP by scintillation counting based radiometry assay relative to control"}, "Homo sapiens [15]": {"species": "Homo sapiens", "experiment": "Inhibition of recombinant human Ros V2262A mutant (1883 to end residues) assessed as residual activity at 10 uM using KKKSPGEYVNIEFG as substrate incubated for 40 mins in presence of [gamma33P]ATP by scintillation counting based radiometry assay relative to control"}, "[16]": {"system": "Serine/threonine-protein kinase Sgk1 (Homo sapiens), O00141 [S422D]", "experiment": "Inhibition of recombinant human SGK S422D mutant (60 to end residues) assessed as residual activity at 10 uM using GRPRTSSFAEGKK as substrate incubated for 40 mins in presence of [gamma33P]ATP by scintillation counting based radiometry assay relative to control"}, "[17]": {"target": "STE20-like serine/threonine-protein kinase (Homo sapiens) (UniProt Q9H2G2)", "sequence (Q9H2G2 whole entry, looked up, the tested form may be a part)": "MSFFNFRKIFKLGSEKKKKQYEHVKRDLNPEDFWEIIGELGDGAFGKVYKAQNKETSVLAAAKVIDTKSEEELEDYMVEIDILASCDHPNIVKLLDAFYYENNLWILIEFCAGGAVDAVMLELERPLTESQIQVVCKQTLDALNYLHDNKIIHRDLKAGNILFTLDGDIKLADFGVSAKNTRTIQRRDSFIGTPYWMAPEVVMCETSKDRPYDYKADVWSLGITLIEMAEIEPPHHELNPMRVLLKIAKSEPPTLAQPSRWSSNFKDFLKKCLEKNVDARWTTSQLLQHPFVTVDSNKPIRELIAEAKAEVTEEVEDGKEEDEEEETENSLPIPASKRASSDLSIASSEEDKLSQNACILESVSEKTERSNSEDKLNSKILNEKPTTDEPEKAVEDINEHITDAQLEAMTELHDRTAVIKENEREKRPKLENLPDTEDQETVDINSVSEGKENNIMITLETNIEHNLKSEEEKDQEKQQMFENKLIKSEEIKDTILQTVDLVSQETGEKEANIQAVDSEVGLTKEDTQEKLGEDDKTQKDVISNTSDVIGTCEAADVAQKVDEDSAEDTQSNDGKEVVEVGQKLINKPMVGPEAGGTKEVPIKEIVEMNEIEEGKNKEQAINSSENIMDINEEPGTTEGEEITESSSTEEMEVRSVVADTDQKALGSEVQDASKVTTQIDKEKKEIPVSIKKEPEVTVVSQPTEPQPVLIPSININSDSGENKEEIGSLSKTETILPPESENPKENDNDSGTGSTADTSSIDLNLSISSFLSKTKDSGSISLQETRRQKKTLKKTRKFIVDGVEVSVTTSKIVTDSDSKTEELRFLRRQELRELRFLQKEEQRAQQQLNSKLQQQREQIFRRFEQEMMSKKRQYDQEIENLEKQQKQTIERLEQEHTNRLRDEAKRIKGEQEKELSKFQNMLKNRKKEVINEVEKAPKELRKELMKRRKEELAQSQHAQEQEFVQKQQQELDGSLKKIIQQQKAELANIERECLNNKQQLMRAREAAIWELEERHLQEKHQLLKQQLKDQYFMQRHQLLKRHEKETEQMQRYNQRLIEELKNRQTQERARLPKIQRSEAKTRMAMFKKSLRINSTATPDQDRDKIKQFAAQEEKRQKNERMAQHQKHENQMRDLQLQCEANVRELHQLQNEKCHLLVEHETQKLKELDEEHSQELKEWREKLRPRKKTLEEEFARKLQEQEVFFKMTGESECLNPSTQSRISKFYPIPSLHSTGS", "experiment": "Inhibition of recombinant human SLK (1 to 373 residues) assessed as residual activity at 10 uM using RLGRDKYKTLRQIRQ as substrate incubated for 40 mins in presence of [gamma33P]ATP by scintillation counting based radiometry assay relative to control"}, "[18]": {"target": "BDNF/NT-3 growth factors receptor (Homo sapiens) (UniProt Q16620)", "experiment": "Inhibition of recombinant human TRKB (455 to end residues) assessed as residual activity at 10 uM using poly(Glu, Tyr) 4:1 as substrate incubated for 40 mins in presence of [gamma33P]ATP by scintillation counting based radiometry assay relative to control"}, "[19]": {"target": "Wee1-like protein kinase 2 (Homo sapiens) (UniProt P0C1S8)", "sequence (P0C1S8 whole entry, looked up)": "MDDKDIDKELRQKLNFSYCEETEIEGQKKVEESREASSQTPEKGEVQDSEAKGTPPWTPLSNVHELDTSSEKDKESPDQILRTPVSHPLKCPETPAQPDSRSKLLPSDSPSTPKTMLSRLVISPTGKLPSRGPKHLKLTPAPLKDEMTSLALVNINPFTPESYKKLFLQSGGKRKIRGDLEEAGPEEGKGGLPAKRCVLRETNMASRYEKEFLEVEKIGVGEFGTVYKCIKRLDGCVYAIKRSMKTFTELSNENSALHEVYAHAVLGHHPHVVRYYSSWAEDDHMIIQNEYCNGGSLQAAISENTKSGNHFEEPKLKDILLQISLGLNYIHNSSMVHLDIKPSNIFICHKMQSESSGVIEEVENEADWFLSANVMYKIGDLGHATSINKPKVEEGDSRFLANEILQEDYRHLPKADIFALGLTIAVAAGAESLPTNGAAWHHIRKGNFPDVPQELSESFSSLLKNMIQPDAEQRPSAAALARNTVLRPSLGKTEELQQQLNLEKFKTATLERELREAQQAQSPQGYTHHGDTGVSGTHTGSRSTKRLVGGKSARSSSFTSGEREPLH", "experiment": "Inhibition of recombinant full length human WEE1b assessed as residual activity at 10 uM using LSNLYHQGKFLQTFCGSPLYRRR as substrate incubated for 40 mins in presence of [gamma33P]ATP by scintillation counting based radiometry assay relative to control"}, "[20]": {"target": "Serine/threonine-protein kinase WNK1 (Homo sapiens) (UniProt Q9H4A3)", "experiment": "Inhibition of recombinant human WNK1 (1 to 491 residues) assessed as residual activity at 10 uM using myelin basic protein as substrate incubated for 40 mins in presence of [gamma33P]ATP by scintillation counting based radiometry assay relative to control"}},
  "data": [
    {"smiles": "C[C@@H](c1ccccc1)n1nnc2cnc3ccc(-c4cnc5[nH]ccc5c4)cc3c21", "values": [
      {"measurement": "Activity", "setting": "A549", "value": "Dose-dependent effect"},
      {"measurement": "Activity", "setting": "[1]", "value": 58, "unit": "%"},
      {"measurement": "Activity", "setting": "[2]", "value": 36, "unit": "%"},
      {"measurement": "Activity", "setting": "[3]", "value": 68, "unit": "%"},
      {"measurement": "Activity", "setting": "[4]", "value": 81, "unit": "%"},
      {"measurement": "Activity", "setting": "[5]", "value": 75, "unit": "%"},
      {"measurement": "Activity", "setting": "Homo sapiens [6]", "value": 3, "unit": "%"},
      {"measurement": "Activity", "setting": "[7]", "value": 89, "unit": "%"},
      {"measurement": "Activity", "setting": "[8]", "value": 82, "unit": "%"},
      {"measurement": "Activity", "setting": "[9]", "value": 21, "unit": "%"},
      {"measurement": "Activity", "setting": "[10]", "value": 93, "unit": "%"},
      {"measurement": "Activity", "setting": "[11]", "value": 85, "unit": "%"},
      {"measurement": "Activity", "setting": "[12]", "value": 73, "unit": "%"},
      {"measurement": "Activity", "setting": "[13]", "value": 65, "unit": "%"},
      {"measurement": "Activity", "setting": "[14]", "value": 23, "unit": "%"},
      {"measurement": "Activity", "setting": "Homo sapiens [15]", "value": 102, "unit": "%"},
      {"measurement": "Activity", "setting": "[16]", "value": 52, "unit": "%"},
      {"measurement": "Activity", "setting": "[17]", "value": 75, "unit": "%"},
      {"measurement": "Activity", "setting": "[18]", "value": 2, "unit": "%"},
      {"measurement": "Activity", "setting": "[19]", "value": 90, "unit": "%"},
      {"measurement": "Activity", "setting": "[20]", "value": 86, "unit": "%"}
    ]}
  ]
}
